Calls of active or inactive are those of the source. The calls are words filed in the database; no cut-off is given here.

The values below come from ChEMBL document CHEMBL1157949, “Kalanchosine dimalate, an anti-inflammatory salt from Kalanchoe brasiliensis” (J Nat Prod, 2006).

This test deals with Mus musculus. Description: Antiinflammatory activity against zymosan-induced inflammation in mouse assessed as impairment of increase in popliteal lymph node weight at 240 mg/kg, ip administered daily 2 days before zymosan challenge measured after 5 days. In kind it is functional, organism-based. Set-up: dose 240 mg/kg.

Turning to `NC(CC(=O)O)C(O)C(O)C(N)CC(=O)O` (stereo unspecified), the outcome was Active.
